According to patent publication US7955852B2, “Expansion of renewable stem cell populations” (Gamida Cell Ltd., priority 2002, dated 2011):

Experiments:
CD34+ cells = test: Colony forming unit (CFU / LTC-CFUc) ability of ex-vivo CD34+ cell cultures; format: cell-based, human; conditions: for No. of CFU*103: 10^−5 M, treated for one week only
Experimental: Total cell counts, numbers of CD34^+ cells and subsets, and CFU numbers are presented as cumulative numbers, with the assumption that the cultures had not been passaged; i.e., the number of cells per ml were multiplied by the number of passages performed.
Cells were cloned in semi-solid, methylcellulose-containing medium supplemented with 2 IU/ml erythropoietin (Eprex, Cilag AG Int., Switzerland), stem cell factor and IL-3, both at 20 ng/ml, and G-CSF and GM-CSF, both at 10 ng/ml (all from Perpo Tech). Cultures were incubated for 14 days at 37° C., 5% CO2 in a humidified atmosphere.
Briefly, the ability of the cultures to maintain self-renewal was measured by determination of the content of colony forming unit cells in the long and extended long-term cultures (LTC-CFUc), as described in the references hereinabove.

primary hepatocytes = test: Primary hepatocyte cultures; α-fetoprotein/albumin immunostaining and Giemsa morphology; format: cell-based, mice; conditions: for oval cell population (Giemsa) / α-fetoprotein (AFP) expression vs control: 10^−5 M, three week old primary cultures, no cytokines
Experimental: Three intact livers were harvested from 3 week old VLVC female mice (Harlan Laboratories, Jerusalem, Israel), dissected and washed twice with DMEM (Beit Haemek, Israel), incubated with DMEM in the presence 0.05% collagenase for 30 minutes at 37° C., ground and passed through a 200 μm mesh sieve, yielding individual hepatocytes. Cells were washed twice and viability was ascertained with trypan blue. Cells were plated in collagen-coated, 35 mm tissue culture plates at a density of 4-×10^4 live cells/ml in F12 media (containing 15 mM Hepes, 0.1% glucose, 10 mM sodium bicarbonate, 100 units/ml penicillin-streptomycin, glutamine, 0.5 units/ml insulin, 7.5 m cg/ml hydrocortisone, and 10% fetal bovine serum). Medium was changed after 12 hours, the cells were washed twice with phosphate buffered saline (PBS) and new medium was added. Medium was changed twice a week.
Hepatocytes were also grown in the presence of Epidermal Growth Factor (EGF), Platelet-Derived Growth Factor β chain (PDGF-BB), Fibroblast growth Factors (FGF4) and Hepatocyte Growth Factor (HGF), at 20-50 ng/ml each, for the entire culturing period according to the method of Schwartz et al. (Schwartz R E, Reyes M, Koodie L, Jiang Y, Blackstad M, Lund T, Lenvik T, Johnson S, Hu W S, Verfaillie C M. Multipotent adult progenitor cells from bone marrow differentiate into functional hepatocyte-like cells. J Clin Invest. 2002; 109 (10): 1291-302). Hepatocytes were also grown in serum free medium according to the method of Runge et al. (Runge D, Runge D M, Jager D, Lubecki K A, Beer Stolz D, Karathanasis S, Kietzmann T, Strom S C, Jungermann K, Fleig W E, Michalopoulos G K. Serum-free, long-term cultures of human hepatocytes: maintenance of cell morphology, transcription factors, and liver-specific functions. Biochem Biophys Res Commun. 2000; 269(1): 46-53).
In all of the above-mentioned hepatocytes culture conditions, cells are grown in the presence or absence of the retinoic acid antagonist AGN 194310 at concentrations ranging from 10^−5 M to 10^−9 M.
After a period of 3 weeks, cultures treated with 10^−5 M antagonist were detached with 0.25% trypsin, split and replated at a 1:2 ratio. The cells were either immunostained as described below, or visualized with Giemsa staining.
Murine hepatocyte cultures supplemented with EGF and HGF were evaluated as primary cultures, or following first and second passages. First passage cultures were grown for 2 weeks, split 1:2 and immunostained 8 days later for the presence of albumin, as described below. Second passage cultures were similarly grown for 2 weeks, split 1:2, and grown for an additional week, then split 1:4 and similarly immunostained 4 days later.
Ex-vivo expanded cells and hepatocytes were stained with Giemsa stain, according to manufacturer's instructions (Shandon, Pittsburg, Pa.) for 4 minutes at room temperature, washed in buffer solution for 4 minutes and washed 3-4 times with rinse solution.
Hepatocytes were probed for expression of α-fetoprotein (AFP) using a rabbit polyclonal antibody raised against a recombinant protein of human origin that cross-reacts with AFP from mouse (H-140 Santa Cruz Technology, Santa Cruz, Calif.), and albumin using a rabbit antiserum to mouse albumin (Cappel-ICN, Aurora, Ohio). Cells were fixed in methanol at −20° C. for 10 minutes, rinsed with PBS for 5 minutes, and permeabilized with 0.1% triton-X (Sigma, Jerusalem, Israel) in PBS for 5 minutes. The cells were then washed with Tris buffer saline (TBS) for 5 minutes and incubated with 1% bovine serum albumin (BSA) in PBS for 10 minutes. Endogeneous peroxidases were inactivated by incubation with peroxidase block (Envision, Dako, Carpinteria, Calif.) for 5 minutes, at room temperature. Cells were incubated with antibodies raised in rabbit against mouse albumin (at a dilution of 1:100); or against α-fetoprotein (at a dilution of 1:25) for 30 minutes. […]

[1] = listed as retinoic acid antagonist

Compound: CCc1ccc(C2=CC(C)(C)Sc3ccc(C#Cc4ccc(C(=O)O)cc4)cc32)cc1 [AGN 194310, 4-[[4-(4-ethylphenyl)-2,2-dimethyl-(2H)-thiochroman-6-yl]-ethynyl]benzoic acid]
- No. of CFU*103 (CD34+ cells; week 13): 66355 *103
- No. of CFU*103 (CD34+ cells; week 20): 0 *103
- increase of CFU content (CD34+ cells; extended long-term (8-10 week) cultures, pulse-treatment or continuous treatment): 15 ×10^4
- increase in CFU content as compared to control (CD34+ cells; long-term (6 weeks) cultures pulsed for the first 3 weeks): 5 fold
- increase in CFU content as compared to control (CD34+ cells; long-term cultures, antagonist administered continuously): 5 fold
- mixed colony forming unit (CFU-mix) content vs control (CD34+ cells; long-term cultures, pulsed first 3 weeks or continuous (FIG. 7)): dramatic increase
- number of hepatocytes in second passage cultures vs controls (primary hepatocytes; 10^−5 M to 10^−7 M, second passage, EGF and HGF supplemented): Significantly greater numbers of hepatocytes
- oval cell population (Giemsa) (primary hepatocytes): marked increase
- α-fetoprotein (AFP) expression vs control (primary hepatocytes): marked increase
- oval cell population (Giemsa) (primary hepatocytes; [1]): large population
- α-fetoprotein (AFP) expression vs control (primary hepatocytes; [1]): increase
- oval cells in first passage cultures (primary hepatocytes; first passage, EGF and HGF supplemented): numerous islets of oval cells
- α-fetoprotein staining (primary hepatocytes; three weeks old primary cultures supplemented with EGF and HGF): Significant strong AFP staining
